Experimental data: PubChem BioAssay (NCI)
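Method: 48-hour compound exposure of cells in 96-well plates, five concentrations, linear interpolation of endpoints. At the GI50, growth is halved. Definition used: TGI = concentration required for complete inhibition of growth.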

How the values were obtained:
Experiment in all cases: inhibition of tumour cell growth, NCI panel, 48 h
786-0 renal = system: 786-0 renal
EKVX NSCLC = system: EKVX NSCLC
IGROV1 ovarian = system: IGROV1 ovarian
NCI/ADR-RES ovarian = system: NCI/ADR-RES ovarian
OVCAR-5 ovarian = system: OVCAR-5 ovarian
SF-539 CNS = system: SF-539 CNS
SK-OV-3 ovarian = system: SK-OV-3 ovarian
SNB-19 CNS = system: SNB-19 CNS
T-47D breast = system: T-47D breast
CCRF-CEM leukemia = system: CCRF-CEM leukemia

Structure (SMILES)	TGI (786-0 renal)	TGI (EKVX NSCLC)	TGI (IGROV1 ovarian)	TGI (NCI/ADR-RES ovarian)	TGI (OVCAR-5 ovarian)	TGI (SF-539 CNS)	TGI (SK-OV-3 ovarian)	TGI (SNB-19 CNS)	TGI (T-47D breast)	GI50 (786-0 renal)	GI50 (CCRF-CEM leukemia)	TGI (CCRF-CEM leukemia)	GI50 (EKVX NSCLC)	GI50 (IGROV1 ovarian)	GI50 (OVCAR-5 ovarian)	GI50 (SF-539 CNS)	GI50 (SK-OV-3 ovarian)	GI50 (SNB-19 CNS)	GI50 (T-47D breast)	GI50 (NCI/ADR-RES ovarian)
CCc1c(Cl)nc(Cl)nc1Cl	3.71 µM	1.94 µM	4.44 µM	11.3 µM	1.3 µM	1.77 µM	12.3 µM	8.79 µM	1.7 µM											
CC1=C([Se]CC(OC(=O)[C@@H](CO)NC(=O)OC(C)(C)C)C(=O)NC(C)(C)C)C(=O)c2ccccc2C1=O (stereo not given in full)	3.39 µM	3.71 µM	3.27 µM		3.73 µM	3.05 µM	2.55 µM	2 µM	1.06 µM	1.95 µM	0.525 µM	> 100 µM	1.76 µM	1.66 µM	2.1 µM	1.57 µM	1.27 µM	0.66 µM	0.332 µM	
COC(=O)C1CCC(Nc2cccc(C(F)(F)F)c2)=N1 (stereo not given)	> 100 µM	> 100 µM	> 100 µM		> 100 µM		> 100 µM	> 100 µM				> 100 µM								
O=c1c2ccccc2c(=O)c2c1cc(Cl)c1[nH]c3c([nH]c12)c(Cl)cc1c(=O)c2ccccc2c(=O)c13	> 100 µM	> 100 µM	> 100 µM		> 100 µM	> 100 µM	> 100 µM	> 100 µM				> 100 µM								
O=C(O)C1c2ccccc2C(C(=O)O)c2ccccc21 (stereo not given)	> 100 µM		> 100 µM		> 100 µM	> 100 µM	> 100 µM	> 100 µM				> 100 µM								
Cc1cc(C(=O)N2CCN(Cc3ccccc3)CC2)c(C)o1	> 100 µM	> 100 µM	> 100 µM		> 100 µM	> 100 µM	> 100 µM	> 100 µM				> 100 µM								
COc1cccc(NC(=O)CC(=O)N2NC(C)C(N=Nc3cccc(C(=O)O)c3)C2=O)c1 (stereo not given)	> 100 µM	> 100 µM	> 100 µM		> 100 µM	> 100 µM	> 100 µM	> 100 µM				> 100 µM								
c1ccc(-c2nn(-c3ccccc3)[n+](-c3cccc4ccccc34)n2)cc1	29.3 µM	33.3 µM	40.8 µM	> 100 µM	63.2 µM	27.7 µM	> 100 µM	> 100 µM	17.4 µM	5.1 µM			0.583 µM	1.59 µM	4.78 µM	2.33 µM	4.61 µM	2.01 µM	0.825 µM	> 100 µM
CCC[CH2][Sn]([CH2]CCC)([O]C(=O)c1nccnc1N)[O]C(=O)c1nccnc1N	1.91 µM	2.18 µM	2.68 µM		3.1 µM	2.3 µM	3.63 µM	2.69 µM		0.652 µM			1.02 µM	1.33 µM	1.72 µM	1.09 µM	2.06 µM	1.4 µM		
Clc1ccc(OC2CCO2)cc1Cl (stereo not given)	> 100 µM	> 100 µM	> 100 µM		> 100 µM	> 100 µM	> 100 µM	> 100 µM				> 100 µM								
C/C(=N/NC(=O)C(N)=O)C(CC(C(=O)Nc1ccccc1C)/C(C)=N\NC(=O)C(N)=O)C(=O)Nc1ccccc1C (stereo not given)	> 100 µM	> 100 µM	> 100 µM		> 100 µM	> 100 µM	> 100 µM	> 100 µM				> 100 µM								
Cc1cc(NS(=O)(=O)c2ccc(NC(=O)c3cccc4c(Nc5ccc(S(=O)(=O)Nc6cc(C)on6)cc5)c5ccccc5nc34)cc2)no1	89.8 µM	> 100 µM	76.5 µM		> 100 µM	62 µM	> 100 µM	88.7 µM				> 100 µM								
N#CCC(=O)N/N=C1\C(=O)N(c2ccc(Cl)cc2)C(=O)C(=O)C1c1nc2ccccc2o1 (stereo not given)	> 100 µM	> 100 µM	> 100 µM			> 100 µM	> 100 µM	> 100 µM				> 100 µM								
COC(=O)[C@@]1(C)CC[C@]2(C)CC[C@]3(C)C4=CC=C5C(=CC(=O)C(O)=C5C)[C@]4(C)CC[C@@]3(C)[C@@H]2C1	0.315 µM	1.11 µM	0.46 µM		1.5 µM	0.554 µM	2.01 µM	0.936 µM		0.172 µM	0.21 µM	0.745 µM	0.295 µM	0.198 µM	0.44 µM	0.26 µM	0.775 µM	0.276 µM		
CC(=O)OC1C(CCl)OC(N=[N+]=[N-])C(OC(C)=O)C1OC(C)=O (stereo not given)	> 100 µM	> 100 µM	> 100 µM			> 100 µM	> 100 µM	> 100 µM				> 100 µM								
CC(C)(C)[Si](C)(C)O/N=C\c1ccc(O[Si](C)(C)C(C)(C)C)cc1	> 100 µM	> 100 µM	> 100 µM		> 100 µM	> 100 µM	> 100 µM	> 100 µM				> 100 µM								
N#Cc1cccc(NC(=O)c2oc3ccccc3c2-c2cnn(-c3ccccc3)c2)c1	> 500 µM	> 500 µM	> 500 µM	> 500 µM	> 500 µM	> 500 µM	> 500 µM	> 500 µM		221 µM	> 500 µM	> 500 µM	> 500 µM	120 µM	> 500 µM	137 µM	> 500 µM	192 µM		> 500 µM
C[C@H]1CC(=O)C2=CCCC3(SCCCS3)[C@@H]2[C@H]1CO	> 100 µM	> 100 µM	> 100 µM		> 100 µM	> 100 µM	> 100 µM	> 100 µM				> 100 µM								
COc1cc2cc[n+]3c4cc(OC)c(OC)cc4c(C)cc3c2cc1OC	> 100 µM	> 100 µM	> 100 µM		> 100 µM	> 100 µM	> 100 µM	> 100 µM				> 100 µM								
C[C@H]1CC[C@@H]2[C@@H](C)[C@H]3[C@H](C[C@H]4[C@@H]5CC=C6C[C@@H](O)CC[C@]6(C)[C@H]5C[C@H](O)[C@]34C)N2C1	> 100 µM	> 100 µM	> 100 µM	> 100 µM	> 100 µM	> 100 µM	> 100 µM	> 100 µM	> 100 µM											
Cc1cc(C)cc(Sc2c([N+](=O)[O-])ncn2C)c1	76.8 µM	> 100 µM	55.1 µM		53.5 µM	20.9 µM	75.5 µM	> 100 µM				> 100 µM								
